The text below walks through data of paper PMC2949542 (Analytical biochemistry, 2010).

Experiment [1] concerns the target T1, carbonic anhydrase II (CAII) (Bos taurus, UniProt P00921). In words: SPR standard injection, ADP over negative-control CAII surface. As to conditions: standard injections, two-fold dilution series from 300 uM, 25 °C. The class given is binding.
The target in experiment [2] is T1, carbonic anhydrase II (CAII). To be noted: read-out: KD (μM) ProteOn (2); BioRad ProteOn XPR36; cited from earlier work.
For experiment [3] the target is unchanged. As to conditions: read-out: KD (μM) Biacore (8); benchmark study on Biacore platforms; cited from earlier work. For orientation: SPR reads the build-up and loss of mass on a sensor chip optically.
Experiment [4] shares this target. Put plainly: SPR. To be noted: for kon: read-out: ka.

Read-outs that look alike come from different tables or passages of the source.

T1 sequence (P00921 whole entry): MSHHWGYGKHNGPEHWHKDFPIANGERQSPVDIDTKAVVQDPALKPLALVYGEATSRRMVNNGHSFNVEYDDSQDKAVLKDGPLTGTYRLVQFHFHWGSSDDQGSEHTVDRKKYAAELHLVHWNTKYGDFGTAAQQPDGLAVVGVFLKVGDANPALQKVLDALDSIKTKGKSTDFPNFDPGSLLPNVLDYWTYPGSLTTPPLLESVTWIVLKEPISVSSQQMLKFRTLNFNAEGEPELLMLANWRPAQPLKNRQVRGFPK

In the case of `Nc1ncnc2c1ncn2[C@@H]1O[C@H](COP(=O)(O)OP(=O)(O)O)[C@@H](O)[C@H]1O` [ADP, adenosine diphosphate], the “binding on negative-control CAII surface” value in experiment [1] is “no reliable ADP binding was observed”.
For `CN(C)c1cccc2c(S(N)(=O)=O)cccc12` [Dansylamide], the Kd (usually the free concentration of one partner at which half of the binding sites on the other are occupied at equilibrium, for simple one-to-one binding) in experiment [2] was 0.8 µM; in experiment [3] it was 0.4 µM.
`NS(=O)(=O)c1ccccc1` [Benzenesulfonamide]: the figures for the Kd in experiment [2], in experiment [3] and in experiment [4] were 1.1 µM, 0.8 µM and 970 nM, respectively. Also, the kon in experiment [4] came out at 135000 M⁻¹ s⁻¹.
As to `NCc1ccc(S(N)(=O)=O)cc1` [4-(Aminomethyl)benzenesulfonamide], the Kd in experiment [3] is 3 µM. For the same compound, in experiment [4], binding was put at a Kd of 5200 nM and the kon worked out at 7300 M⁻¹ s⁻¹.
Consider `NS(=O)(=O)c1cccc(S(N)(=O)=O)c1` [1,3-Benzenedisulfonamide], for which the Kd in experiment [2] is 0.64 µM; in experiment [3], 0.8 µM; in experiment [4], 613 nM. Besides, in experiment [4], the kon was 179000 M⁻¹ s⁻¹.
